{"source": "patent US10584115B2", "about": "“Substituted pyridine and pyrazine BMI-1 inhibitors” (PTC Therapeutics, Inc., priority 2013, dated 2020)", "data": [{"tested_on": "Bmi-1 protein", "assay": "Sandwich ELISA Assay (Bmi-1 protein level in HT-1080 cells after compound treatment)", "type": "cell-based", "settings": "Table 1, Bmi-1 sandwich ELISA, read-out: ELISA EC50 value for Bmi-1 protein", "how_it_was_run": "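HT-1080 cells exposed to compounds for 40–48 h at 37 °C (0.5% DMSO final), then lysed. Bmi-1 in lysates measured by sandwich ELISA (mouse monoclonal capture, rabbit anti-Bmi-1 detection, HRP anti-rabbit, TMB), read at OD450 with OD570 reference against a recombinant Bmi-1 standard curve (0–8000 pg/mL).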", "units": {"EC50": "nM"}, "values": [{"smiles": "CSc1cc(Nc2ccc(C(F)(F)F)cc2)nc(-c2c(C(F)(F)F)nc3ccccn23)c1", "note": "[compound 173, 4-(methylsulfanyl)-6-[2-(trifluoromethyl)imidazo[1,2-a]pyridin-3-yl]-N-[4-(trifluoromethyl)phenyl]pyridin-2-amine]", "EC50": "100 to 3000"}, {"smiles": "COc1ccc(Nc2cccc(-n3c(C)cc4ccccc43)n2)cc1", "note": "[compound 174, N-(4-methoxyphenyl)-6-(2-methyl-1H-indol-1-yl)pyridin-2-amine]", "EC50": "100 to 3000"}, {"smiles": "CCc1nc2cc(F)c(F)cc2n1-c1cncc(Nc2ccc(C(F)(F)F)cc2)n1", "note": "[compound 177, 6-(2-ethyl-5,6-difluoro-1H-benzimidazol-1-yl)-N-[4-(trifluoromethyl)phenyl]pyrazin-2-amine]", "EC50": "10 to 100"}, {"smiles": "CSc1nc2ccccc2n1-c1cncc(Nc2ccc(OC(F)F)cc2)n1", "note": "[compound 181, N-[4-(difluoromethoxy)phenyl]-6-[2-(methylsulfanyl)-1H-benzimidazol-1-yl]pyrazin-2-amine]", "EC50": "10 to 100"}, {"smiles": "Fc1cc2nc(C3CC3)n(-c3cncc(Nc4ccc(C(F)(F)F)cc4)n3)c2cc1F", "note": "[compound 182, 6-(2-cyclopropyl-5,6-difluoro-1H-benzimidazol-1-yl)-N-[4-(trifluoromethyl)phenyl]pyrazin-2-amine]", "EC50": "10 to 100"}, {"smiles": "CNc1nc2ccccc2n1-c1cncc(Nc2ccc(OC(F)(F)F)cc2)n1", "note": "[compound 183, N-methyl-1-(6-{[4-(trifluoromethoxy)phenyl]amino}pyrazin-2-yl)-1H-benzimidazol-2-amine]", "EC50": "10 to 100"}, {"smiles": "N#Cc1nc2ccccc2n1-c1cncc(Nc2ccc(OC(F)(F)F)cc2)n1", "note": "[compound 184, 1-(6-{[4-(trifluoromethoxy)phenyl]amino}pyrazin-2-yl)-1H-benzimidazole-2-carbonitrile]", "EC50": "100 to 3000"}, {"smiles": "Cc1nc2ccccc2n1-c1cncc(Nc2ccc(C(N)=O)cc2)n1", "note": "[compound 185, 4-{[6-(2-methyl-1H-benzimidazol-1-yl)pyrazin-2-yl]amino}benzamide]", "EC50": "100 to 3000"}, {"smiles": "CNC(=O)c1ccc(Nc2cncc(-n3c(C)nc4ccccc43)n2)cc1", "note": "[compound 186, N-methyl-4-{[6-(2-methyl-1H-benzimidazol-1-yl)pyrazin-2-yl]amino}benzamide]", "EC50": "100 to 3000"}, {"smiles": "CNc1nc2ccccc2n1-c1cncc(Nc2ccc(OC(F)F)cc2)n1", "note": "[compound 187, 1-(6-{[4-(difluoromethoxy)phenyl]amino}pyrazin-2-yl)-N-methyl-1H-benzimidazol-2-amine]", "EC50": "1 to 10"}, {"smiles": "N#Cc1nc2ccccc2n1-c1cncc(Nc2ccc(OC(F)F)cc2)n1", "note": "[compound 188, 1-(6-{[4-(difluoromethoxy)phenyl]amino}pyrazin-2-yl)-1H-benzimidazole-2-carbonitrile]", "EC50": "10 to 100"}, {"smiles": "CSc1nc2ccccn2c1-c1cncc(Nc2ccc(C(F)(F)F)cc2)n1", "note": "[compound 191, 6-[2-(methylsulfanyl)imidazo[1,2-a]pyridin-3-yl]-N-[4-(trifluoromethyl)phenyl]pyrazin-2-amine]", "EC50": "1 to 10"}, {"smiles": "Cc1nc2cc(Cl)c(Cl)cc2n1-c1cncc(Nc2ccc(OC(F)(F)F)cc2)n1", "note": "[compound 192, 6-(5,6-dichloro-2-methyl-1H-benzimidazol-1-yl)-N-[4-(trifluoromethoxy)phenyl]pyrazin-2-amine]", "EC50": "10 to 100"}, {"smiles": "Cc1nc2cc(Cl)c(Cl)cc2n1-c1cncc(Nc2ccc(C(F)(F)F)cc2)n1", "note": "[compound 193, 6-(5,6-dichloro-2-methyl-1H-benzimidazol-1-yl)-N-[4-(trifluoromethyl)phenyl]pyrazin-2-amine]", "EC50": "10 to 100"}, {"smiles": "FC(F)(F)c1ccc(Nc2cccc(-c3c(C(F)(F)F)nc4cnccn34)n2)cc1", "note": "[compound 194, 6-[2-(trifluoromethyl)imidazo[1,2-a]pyrazin-3-yl]-N-[4-(trifluoromethyl)phenyl]pyridin-2-amine]", "EC50": "10 to 100"}, {"smiles": "FC(F)(F)Oc1ccc(Nc2cccc(-c3c(C(F)(F)F)nc4cnccn34)n2)cc1", "note": "[compound 195, N-[4-(trifluoromethoxy)phenyl]-6-[2-(trifluoromethyl)imidazo[1,2-a]pyrazin-3-yl]pyridin-2-amine]", "EC50": "100 to 3000"}, {"smiles": "FC(F)Oc1ccc(Nc2cccc(-c3c(C(F)(F)F)nc4cnccn34)n2)cc1", "note": "[compound 196, N-[4-(difluoromethoxy)phenyl]-6-[2-(trifluoromethyl)imidazo[1,2-a]pyrazin-3-yl]pyridin-2-amine]", "EC50": "10 to 100"}, {"smiles": "O=[N+]([O-])c1cc(Nc2ccc(OC(F)(F)F)cc2)nc(-c2c(C(F)(F)F)nc3ccccn23)c1", "note": "[compound 197, 4-nitro-N-[4-(trifluoromethoxy)phenyl]-6-[2-(trifluoromethyl)imidazo[1,2-a]pyridin-3-yl]pyridin-2-amine]", "EC50": "10 to 100"}, {"smiles": "Nc1cc(Nc2ccc(OC(F)(F)F)cc2)nc(-c2c(C(F)(F)F)nc3ccccn23)c1", "note": "[compound 198, N^2-[4-(trifluoromethoxy)phenyl]-6-[2-(trifluoromethyl)imidazo[1,2-a]pyridin-3-yl]pyridine-2,4-diamine]", "EC50": "10 to 100"}, {"smiles": "Cc1nc2cc(F)c(F)cc2n1-c1cncc(Nc2ccc(OC(F)F)cc2)n1", "note": "[compound 199, N-[4-(difluoromethoxy)phenyl]-6-(5,6-difluoro-2-methyl-1H-benzimidazol-1-yl)pyrazin-2-amine]", "EC50": "1 to 10"}, {"smiles": "FC(F)(F)c1nc2ccccn2c1-c1cncc(Nc2cnc(Cl)nc2)n1", "note": "[compound 200, 2-chloro-N-{6-[2-(trifluoromethyl)imidazo[1,2-a]pyridin-3-yl]pyrazin-2-yl}pyrimidin-5-amine]", "EC50": "100 to 3000"}, {"smiles": "Oc1ccc(Nc2cncc(-c3c(C(F)(F)F)nc4ccccn34)n2)cc1", "note": "[compound 207, 4-({6-[2-(trifluoromethyl)imidazo[1,2-a]pyridin-3-yl]pyrazin-2-yl}amino)phenol]", "EC50": "100 to 3000"}, {"smiles": "Cc1nc2ccccc2n1-c1cncc(Nc2ccc(C(F)(F)F)c(F)c2)n1", "note": "[compound 209, N-[3-fluoro-4-(trifluoromethyl)phenyl]-6-(2-methyl-1H-benzimidazol-1-yl)pyrazin-2-amine]", "EC50": "10 to 100"}, {"smiles": "N#Cc1cc(Nc2ccc(C(F)(F)F)cc2)nc(-c2c(C(F)(F)F)nc3ccccn23)c1", "note": "[compound 210, 2-[2-(trifluoromethyl)imidazo[1,2-a]pyridin-3-yl]-6-{[4-(trifluoromethyl)phenyl]amino}pyridine-4-carbonitrile]", "EC50": "10 to 100"}, {"smiles": "FC(F)(F)Sc1ccc(Nc2cncc(-c3c(C(F)(F)F)nc4ccccn34)n2)cc1", "note": "[compound 211, 6-[2-(trifluoromethyl)imidazo[1,2-a]pyridin-3-yl]-N-{4-[(trifluoromethyl)sulfanyl]phenyl}pyrazin-2-amine]", "EC50": "100 to 3000"}, {"smiles": "O=C(c1ccc(Nc2cncc(-c3c(C(F)(F)F)nc4ccccn34)n2)cc1)C(F)(F)F", "note": "[compound 212, 2,2,2-trifluoro-1-[4-({6-[2-(trifluoromethyl)imidazo[1,2-a]pyridin-3-yl]pyrazin-2-yl}amino)phenyl]ethanone]", "EC50": "100 to 3000"}, {"smiles": "OCc1nc2ccccn2c1-c1cncc(Nc2ccc(OC(F)(F)F)cc2)n1", "note": "[compound 213, [3-(6-{[4-(trifluoromethoxy)phenyl]amino}pyrazin-2-yl)imidazo[1,2-a]pyridin-2-yl]methanol]", "EC50": "100 to 3000"}, {"smiles": "Cc1ccc(Nc2cncc(-c3c(CO)nc4ccccn34)n2)cc1", "note": "[compound 214, (3-{6-[(4-methylphenyl)amino]pyrazin-2-yl}imidazo[1,2-a]pyridin-2-yl)methanol]", "EC50": "< 1"}, {"smiles": "OCc1nc2ccccn2c1-c1cncc(Nc2ccc(OC(F)F)cc2)n1", "note": "[compound 215, [3-(6-{[4-(difluoromethoxy)phenyl]amino}pyrazin-2-yl)imidazo[1,2-a]pyridin-2-yl]methanol]", "EC50": "1 to 10"}, {"smiles": "N#Cc1cc(Nc2ccc(OC(F)(F)F)cc2)nc(-c2c(C(F)(F)F)nc3ccccn23)c1", "note": "[compound 218, 2-{[4-(trifluoromethoxy)phenyl]amino}-6-[2-(trifluoromethyl)imidazo[1,2-a]pyridin-3-yl]pyridine-4-carbonitrile]", "EC50": "10 to 100"}, {"smiles": "Cc1nc2ccc(Cl)cc2n1-c1cncc(Nc2ccc(OC(F)(F)F)cc2)n1", "note": "[compound 220, 6-(6-chloro-2-methyl-1H-benzimidazol-1-yl)-N-[4-(trifluoromethoxy)phenyl]pyrazin-2-amine]", "EC50": "10 to 100"}, {"smiles": "Cc1nc2ccc(Cl)cc2n1-c1cncc(Nc2ccc(OC(F)F)cc2)n1", "note": "[compound 221, 6-(6-chloro-2-methyl-1H-benzimidazol-1-yl)-N-[4-(difluoromethoxy)phenyl]pyrazin-2-amine]", "EC50": "1 to 10"}, {"smiles": "N#Cc1cc(Nc2ccc(OC(F)(F)F)cc2)nc(-c2c(C(F)(F)F)nc3ccc(F)cn23)c1", "note": "[compound 222, 2-[6-fluoro-2-(trifluoromethyl)imidazo[1,2-a]pyridin-3-yl]-6-{[4-(trifluoromethoxy)phenyl]amino}pyridine-4-carbonitrile]", "EC50": "10 to 100"}, {"smiles": "Cc1nc2cc(Cl)ccc2n1-c1cncc(Nc2ccc(OC(F)(F)F)cc2)n1", "note": "[compound 223, 6-(5-chloro-2-methyl-1H-benzimidazol-1-yl)-N-[4-(trifluoromethoxy)phenyl]pyrazin-2-amine]", "EC50": "100 to 3000"}, {"smiles": "Cc1nc2cc(Cl)ccc2n1-c1cncc(Nc2ccc(OC(F)F)cc2)n1", "note": "[compound 224, 6-(5-chloro-2-methyl-1H-benzimidazol-1-yl)-N-[4-(difluoromethoxy)phenyl]pyrazin-2-amine]", "EC50": "10 to 100"}, {"smiles": "CNc1ccc2nc(C)n(-c3cncc(Nc4ccc(OC(F)(F)F)cc4)n3)c2c1", "note": "[compound 225, N,2-dimethyl-1-(6-{[4-(trifluoromethoxy)phenyl]amino}pyrazin-2-yl)-1H-benzimidazol-6-amine]", "EC50": "100 to 3000"}, {"smiles": "Cc1n[nH]c(C)c1-c1cncc(Nc2ccc(C(F)(F)F)cc2)n1", "note": "[compound 226, 6-(3,5-dimethyl-1H-pyrazol-4-yl)-N-[4-(trifluoromethyl)phenyl]pyrazin-2-amine]", "EC50": "100 to 3000"}, {"smiles": "Cc1nc2cc(F)c(F)cc2n1-c1cc(N)cc(Nc2ccc(C(F)(F)F)cc2)n1", "note": "[compound 231, 6-(5,6-difluoro-2-methyl-1H-benzimidazol-1-yl)-N^2-[4-(trifluoromethyl)phenyl]pyridine-2,4-diamine]", "EC50": "10 to 100"}]}]}
